In patent publication US7157092B1, “Acyl pseudodipeptides, preparation method and pharmaceutical compositions containing same” (Om Pharma, priority 1998, dated 2007):

Legend:
[1] = system: Pb CS His6-242-310 antigen; experiment: Murine immunization with Pb CS His6-242-310 peptide: specific antibody titer (ELISA); type: in vivo, BALB/c mice; conditions: 0.05 mg adjuvant + 0.02 mg antigen s.c.; for serological response following three shots: ELISA 2 weeks after third shot, FIG. 15; for anti-Pb CS His6-242-310 antibody titer after one single shot: ELISA 3 weeks after first shot, FIG. 13; for serological response after two shots: ELISA 4 weeks after second shot, FIG. 14
Protocol: Antigen: Pb CS([…] Chem., 8: (1979) 350–341).
Serum sampling: Blood sampling is conducted at weeks 0, 3, 7 and 9. Blood is allowed to stand for 6 min. at 37° C., then is kept overnight at 4° C. Serum is subsequently frozen at −80° C. until time of antibody assay.
Assay of antibodies specifically raised against Pb Cs His6 242-310 antigen is performed by ELISA. Binding of antigen is done in 96-well microtiter plates (Maxisorp F96, Nunc, DK) by conducting overnight incubation in a moist chamber at 4° C. with each well containing 0.1 ml of PBS (phosphate buffered saline) containing 0.001 mg/ml of Pb CS His6242-310 antigen. Blocking of the microtiter plate is performed with PBS containing 1% of bovine serum albumin (BSA, Fluka, Switzerland). Plates are washed with PBS containing 0.05% Tween 20 (Sigma, St. Louis, Mo., USA). Serum samples collected at 0, 3, 7 and 9 weeks are serially diluted with dilution buffer (PBS containing 2.5% of skimmed milk powder and 0.05% of Tween 20), then transferred into a microtiter plate and allowed to stand for 1 hr. at room temperature (RT). Plates are then washed with PBS, a diluted solution containing mouse polyclonal anti-immunoglobulin coupled to alkaline phosphatase (Sigma, St. Louis, Mo., USA) is then dispensed into those plates and incubated for 1 hr. at RT. […] Absorbance at 405 nm is read with a microtiter plate reader (Dynatech 25000 ELISA reader, Ashford, Middlesex, UK), each serum sample is measured in duplicate. Results stand for the mean of all measurements relating to mice in each group.

H1N1 antigen = experiment: Subcutaneous immunization with H1N1 antigen: specific serum immunoglobulins (ELISA); type: in vivo, BALB/c mice; conditions: for Immunoglobulins specifically raised against H1N1 of IgG1 subclass / Immunoglobulins specifically raised against H1N1 of IgG2a subclass / Immunoglobulins specifically raised against H1N1 of IgM subclass: s.c. injections days 0 and 14, H1N1 2.5 μg, adjuvant 50 μg per injection, ± SD; for adjuvant effect on titer of antibodies specifically raised against H1N1: after one or two injections, FIGS. 22-24
ovalbumin = experiment: Subcutaneous immunization with ovalbumin antigen: specific serum immunoglobulins (ELISA); type: in vivo, BALB/c mice; conditions: for adjuvant effect on titer of antibodies specifically raised against ovalbumin: IgG1 and IgG2a subclasses, after one or two injections, FIGS. 25-27; for Immunoglobulins specifically raised against ovalbumin of IgG1 subclass / Immunoglobulins specifically raised against ovalbumin of IgG2a subclass / Immunoglobulins specifically raised against ovalbumin of IgM subclass: s.c. injections days 0 and 14, ovalbumin 50 μg, adjuvant 50 μg per injection, ± SD
Protocol: To this end, 50 BALB/c mice (females, aged 8 weeks at the beginning of treatment) were divided into 5 groups as follows:
Antigen: An ovalbumin stock solution is prepared at a concentration of 0.5 mg/ml in 0.9% NaCl.
The negative control consists of a 0.9% NaCl solution without antigen.
Antigen-Adjuvant mixture: Adjuvants are allowed to stand for 20 minutes at 37° C. before vortex treatment for 3 minutes. Then the antigen and (0.9%) NaCl are added as specified in the above Table, and the antigen/adjuvant mixture is vortexed briefly before placing it on a rotary stirrer for 15 minutes at room temperature, then the whole mixture is vortexed for 3 minutes.
Immunization regimen: Injections are scheduelled on days 0 and 14. The mixtures stated in the preceeding table are administered by subcutaeous route (75 μl on the side, 150 μl in total per animal). Blood sampling is scheduelled on days 14 and 28 (orbital puncture).
Assay for anti-ovalbumin immunoglobulins: The following serum Immunolglobulins which are specifically directed against ovalbumin are assayed in duplicate by ELISA: IgG1, IgG2a, and IgM. Briefly stated, microtiter plates (NUNC Immunoplate, Roskilde, DK) are incubated (overnight coating) at 40C together with 100 μl ovalbumin (0.5 μg) in bicarbonate buffer pH 9.6). After washing with 0.5% Tween-20 (Merck Hohenbrunn, D), sera are diluted 50-, 200- and 800-fold (diluting solution: phosphate buffered saline (PBS)+1% bovine serum albumin (BSA, Sigma, St. Louis, Mo., USA)+0.02% Tween-20)). 100 μl of each dilute serum sample are added to the wells. Incubation lasts 45 minutes at 37° C.
After a second washing step, IgG1, IgG2a and IgM specifically directed to ovalbumin are incubated for 30 minutes at 37° C. together with 100 μl of anti-IgG1 antibodies (anti-mouse rat antibody)-peroxydase conjugate (Serotec, Oxford, UK), IgG2a-peroxydase conjugate (Pharmingen, San Diego, Calif., USA) and IgM-biotin conjugate (Pharmingen, San Diego, Calif., USA), diluted beforehand in PBS/BSA/Tween buffer (250-, 1000-, 500-fold dilutions, respectively). For IgM, after an extra washing step, a 3rd incubation step is required (30 min. at 37° C.) with a 1:100 dilute solution of streptavidin-peroxydase conjugate (Dako, Glostrup, DK).
After the washing step, 100 μl of a phenylene 1,2-diamine solution (OPD, Merck, Darmstadt, GFR) are added to detect peroxydase-coupled anti-IgG1 and anti-IgG2 secondary antibodies (whereas for IgM, the reagent being used is 3′, 3′, 5′,5′-tetramethylbenzidine (TMB, Sigma, St. Louis, Mo., USA). After a 20 minute incubation period at room temperature, the reaction is stopped by adding 100 μl of 2N H2SO4. Absorbance values are read at 490 nm with a Bio-Rad 3550 model plate reader
Results of each reading at 490 nm are given in arbitrary units (A.U.) per ml. This is achieved by comparing each sample with a standard prepared from different dilutions of a sample pool collected from group B at day 28 (animals injected with ovalbumin alone). As clearly understood by this term, the sample pool diluted 50-fold is at a concentration of 1000 A.U./ml. Individual results are then corrected for the corresponding dilution factor (50, 200, or 800 times). Only the mean values of each group and the standard deviation (SD) are herein reported.

DC-6 cells = experiment: α TNF production by predendritic cells at DC-6 stage (ELISA); conditions: 10 μg/ml; 4, 6 and 24 hr; FIG. 10

Row | SMILES | serological response following three shots [1] | anti-Pb CS His6-242-310 antibody titer after one single shot [1] | serological response after two shots [1] | Immunoglobulins specifically raised against H1N1 of IgG1 subclass (H1N1 antigen; Day 14) [Arbitrary units/ml] | Immunoglobulins specifically raised against H1N1 of IgG2a subclass (H1N1 antigen; Day 14) [Arbitrary units/ml] | Immunoglobulins specifically raised against H1N1 of IgM subclass (H1N1 antigen; Day 14) [Arbitrary units/ml] | Immunoglobulins specifically raised against H1N1 of IgG1 subclass (H1N1 antigen; Day 28) [Arbitrary units/ml] | Immunoglobulins specifically raised against H1N1 of IgG2a subclass (H1N1 antigen; Day 28) [Arbitrary units/ml] | Immunoglobulins specifically raised against H1N1 of IgM subclass (H1N1 antigen; Day 28) [Arbitrary units/ml] | adjuvant effect on titer of antibodies specifically raised against H1N1 (H1N1 antigen) | adjuvant effect on titer of antibodies specifically raised against ovalbumin (ovalbumin) | α TNF production by DC-6 cells (DC-6 cells) | Immunoglobulins specifically raised against ovalbumin of IgG1 subclass (ovalbumin; Day 14) [Arbitrary units/ml] | Immunoglobulins specifically raised against ovalbumin of IgG2a subclass (ovalbumin; Day 14) [Arbitrary units/ml] | Immunoglobulins specifically raised against ovalbumin of IgM subclass (ovalbumin; Day 14) [Arbitrary units/ml] | Immunoglobulins specifically raised against ovalbumin of IgG1 subclass (ovalbumin; Day 28) [Arbitrary units/ml] | Immunoglobulins specifically raised against ovalbumin of IgG2a subclass (ovalbumin; Day 28) [Arbitrary units/ml] | Immunoglobulins specifically raised against ovalbumin of IgM subclass (ovalbumin; Day 28) [Arbitrary units/ml]
1 | CCCCCCCCCCCC(=O)O[C@H](CCCCCCCCCCC)CC(=O)NC(CCOP(=O)(O)O)C(=O)NCCCC(COP(=O)(O)O)NC(=O)C[C@H](O)CCCCCCCCCCC (stereo partly drawn) [OM-294-DP, 3-[(R)-3-dodecanoyloxytetradecanoylamino]-4-oxo-5-aza-9-[(R)-3-hydroxytetradecanoylamino]decan-1,10-diol 1, 10-bis(dihydrogenphosphate)] | greater than that of IFA | almost as high as the response observed with Incomplete Freund's Adjuvant (IFA) | greater than that of IFA | 59 ± 21 | 452 ± 584 | 20756 ± 7160 | 38 ± 25 | 782 ± 857 | 20944 ± 9065 | significantly increase the titer of antibodies specifically raised against H1N1 | significantly increase | only a minor stimulating effect | – | – | – | – | – | –
2 | CCCCCCCCCCCC(=O)O[C@H](CCCCCCCCCCC)CC(=O)NC(CCOP(=O)(O)O)C(=O)NCCCC(CO)NC(=O)C[C@H](O)CCCCCCCCCCC (stereo partly drawn) [OM-294-MP, 3-[(R)-3-dodecanoyloxytetradecanoylamino]-4-oxo-5-aza-9-[(R)-3-hydroxytetradecanoylamino]-decane-1,10-diol 1-dihydrogenphosphate] | greater than that of IFA | almost as high as the response observed with Incomplete Freund's Adjuvant (IFA) | greater than that of IFA | 69 ± 34 | 1619 ± 743 | 19065 ± 4069 | 59 ± 31 | 1767 ± 1034 | 18018 ± 1016 | significantly increase the titer of antibodies specifically raised against H1N1 | significantly increase | in a way similar to LPS | 19 ± 8 | 11253 ± 12169 | 19742 ± 5667 | 40 ± 69 | 4192 ± 2104 | 9827 ± 2021
